Experimental data reported in patent publication EP0367974A1, “Cis-complexes with a 1,3-diaminopropane derivative as a ligand, methods for their preparation and pharmaceutical agents containing such complexes” (BEHRINGWERKE Aktiengesellschaft, priority 1988, dated 1990).

How the values were obtained:
[1] = tested on: NMRI-Mäusen; assay: Acute toxicity in mice (LD50, Litchfield-Wilcoxon); format: in vivo, Maus; settings: 3 x i.p.; survivors counted day 14 after last injection
Procedure: Zur Ermittlung der akuten Toxizität werden NMRI-Mäusen am Tag 0 unterschiedliche Dosen der Testsubstanz gelöst in 0.5 ml 5 %iger Glucose-Lösung, intraperitoneal injiziert. Kontrollgruppen erhalten lediglich 0.5 ml 5 %ige Glucose-Lösung. Pro Konzentration der Testsubstanz werden 5 Mäuse verwendet. Am Tag 14 nach der letzten Injektion wird die Zahl der überlebenden Mäuse ermittelt und daraus nach der Lichtfield Wilcoxon Methode die LD5, LD50 und LD95 ermittelt.

[2] = tested on: L1210-Leukämiezellen; assay: Colony formation of L1210 leukaemia cells in soft agar; format: cell-based, Maus; settings: colony number vs untreated control, 7 days at 37° C; 1 h incubation or continuous exposure not specified
From the text: Die Bestimmung der zytostatischen Wirksamkeit der hier beschriebenen Verbindungen erfolgte an L1210-Leukämiezellen der Maus. Im einzelnen wurden folgende Testsysteme verwendet:
Diese Methode dient zum Nachweis eines Einflusses der Testsubstanzen auf das Wachstumsverhalten der Zellen über mehrere Generationen (bei einer Zellzykluszeit von 10 - 12 Stunden werden in der Testzeit von 7 Tagen etwa 14 aufeinanderfolgende Generationen beobachtet). Zytostatisch wirksame Substanzen bewirken in diesem Test eine Reduktion der zu beobachtenden Koloniezahl gegenüber einer unbehandelten Kontrolle. Im einzelnen wird der Test wie folgt durchgeführt: Leukämiezellen werden mit unterschiedlichen Konzentrationen von Testsubstanz 1 Stunde bei 37° C inkubiert.
Anschließend werden die Zellen zweimal mit McCoy5A-Medium gewaschen und schließlich in Petrischalen nach Zusatz von 0.3 % Agar ausgegossen (500 Zellen/Platte). Kontrollen werden lediglich mit frischem Medium inkubiert. Anstelle der einstündigen Inkubation werden in manchen Fällen unterschiedliche Konzentrationen und Testsubstanz der oberen Agarschicht zugemischt, um so eine kontinuierliche Exposition der Zellen über die gesamte Inkubationszeit zu erreichen. Nach Erstarren des Agars werden die Platten im Brutschrank 7 Tage bei 37° C inkubiert ( 5 Vol-% CO₂, 95 % relative Luftfeuch tigkeit). Anschließend wird die Anzahl der entstandenen Kolonien mit einem Durchmesser von mehr als 60 µ gezählt. Die Ergebnisse werden angegeben als Koloniezahl in behandelten Agarplatten, in Prozent der unbehandelten Kontrolle. Aus der so erhalten Dosiswirkungskurve wird die IC₅₀ als Maß für die Wirksamkeit der Substanz ermittelt.

[3] = tested on: L1210 Leukämie der Maus; assay: In vivo efficacy of the platinum complexes against L1210 leukaemia of the mouse; set-up: opt. Dose: unit not given here; settings: for LTS (Long Term Survivor): animals alive on day 60 (cured) per group of 6, at optimal dose, 3 x i.p./i.p.; for opt. Dose: dose with the greatest antitumoural effect, schedule 3 x i.p./i.p.; for T/C % L1210: treatment schedule 3 x i.p./i.p., mean survival time vs control at optimal dose
Procedure: Ascitesflüssigkeit wird unter sterilen Bedingungen DBA2 Mäusen (weiblich, 18 - 20 g) 7 Tage nach Implantation entnommen. Der Ascites wird dreimal mit PBS gewaschen, gezählt und auf eine Zellzahl von 10⁶ in 0.2 ml PBS eingestellt. 10⁶ Zellen, suspendiert in 0.2 ml PBS, werden anschlie-ßend DBF1 Mäusen (weiblich, 18 - 20 g) intraperitoneal injiziert. 6 Tiere pro Gruppe werden für jede Substanz konzentration bzw. als Kontrolle eingesetzt.
• a) Die Tiere werden am Tag 1 und 5 nach Injektion der Testsubstanz gewogen.
Die Dosis, die den größten antitumoralen Effekt (optimale Dosierung) sowie jeweils eine Dosisstufe oberhalb und unterhalb dieser Dosis wurden angegeben. Tiere, die am Tag 60 des Experimentes noch leben, werden als geheilt zusätzlich getrennt aufgeführt.

SMILES	LD₅₀ [1] [mg/kg]	IC₅₀ [2] [µg/mL]	LTS (Long Term Survivor) [3]	opt. Dose [3]	T/C % L1210 [3] [%]
CCC(CN)(CN)COC.CCC1(C)[O][Pt][O]C1=O [Verbindung 22, 1,3-Diamino-2-ethyl-2-methoxymethyl-propan-N,N′-platin(II)-O,O′-(2-hydroxy-2-methyl)-butyrat]	90 to 180	2.9			
CCC(CN)(CN)COC.O=C1[O][Pt][O]C(=O)C12CC2 [Verbindung 1, 1,3-Diamino-2-ethyl-2-methoxymethyl-propan-N,N′-platin(II)-O,O′-cyclopropan-1,1-dicarboxylat]	90 to 120	5.0	6/6	50	450
COCC(C)(CN)CN.O=C([O-])C1(C(=O)[O-])CC1.[Pt+2] [Verbindung 2, 1,3-Diamino-2-methoxymethyl-2-methyl-propan-N,N′-platin(II)-O,O′-cyclopropan-1,1-dicarboxylat]		4.2			
CCC(CN)(CN)COC.O=C1C[O][Pt][O]1 [Verbindung 16, 1,3-Diamino-2-ethyl-2-methoxymethyl-propan-N,N′-platin(II)-O,O′-2-hydroxy-acetat]		1.2	4/6	15.8	361
N.N.[Cl][Pt][Cl] [Cisplatin, reference compound]		0.04		4	157
CCC(CN)(CN)COC.COC1C(=O)[O][Pt][O]C1=O [Verbindung 9, 1,3-Diamino-2-ethyl-2-methoxymethyl-propan-N,N′-platin(II)-O,O′-2-methoxymalonat]	60	2.35	3/6	16	306
COCC(C)(CN)CN.O=C1C[O][Pt][O]1 [Verbindung 17, 1,3-Diamino-2-methoxymethyl-2-methyl-propan-N,N′-platin(II)-O,O′-2-hydroxy-acetat]		1.8	1/6	9.5	225
